# How the values were obtained:
# [1] = molecular target: T1, c-KIT V560G/D816V (Homo sapiens, UniProt P10721, D816V/V560G); test: ADP-Glo kinase assay on c-KIT V560G/D816V; assay type: biochemical; conditions: for IC50: ADP-Glo kinase assay, 10 μM ATP; for fold higher enzymatic inhibitory activity against c-KIT V560G/D816V compared with imatinib: versus imatinib
# T1 construct: purchased Promega VA7063
# Method: (§1) Biochemical kinase assays on c-KIT protein kinase were performed at Reaction Biology Corp. (San Diego, CA, USA). […] The kinase assay followed the manufacturer’s instruction. IC50 values were calculated by GraphPad prism 8.0 software (GraphPad Software, San Diego, CA, USA).
# [2] = system: GIST-T1 cells; test: Cell viability assay (CellTiter-Glo); assay type: cell-based; conditions: Homo sapiens, GISTT1; 72 h; concentration causing half-maximal growth inhibition
# Method: (§2) GIST-T1 (Cosmobio, Tokyo, Japan, # PMC-GIST01C-COS) cells were cultured in DMEM (Welgene, # LM001-05) and HMC1.2 (Merck, Darmstadt, Germany, # SCC062) cells were cultured in IMDM (Welgene, # LM004-01). Parental Ba/F3 (DSMZ, Braunschweig, Germany, # ACC300) cells were cultured in RPMI (Welgene, # LM011-51) with 10 ng IL-3/mL (Enzo, # ALX-201-821). The culture media was supplemented with 10% fetal bovine serum and 1% penicillin/streptomycin solution. The cells were maintained in a humidified atmosphere containing 5% CO2 at 37 °C.
# (§3) Cells (GIST-T1: 5.0 × 10^3; HMC1.2: 1 × 10^4) were seeded in 96-well plates. Each compound was treated in each well at 10 dose points of 3-fold serial dilution. After treatment with each compound for 72 h, CellTiter-Glo solution (Promega, # G7572) was added to each well. Anti-proliferation activity was measured the luminescence using a 96-well plate reader (EnVision 2013).
# [3] = system: HMC1.2 cells; test: Cell viability assay (CellTiter-Glo); assay type: cell-based, human; conditions: Homo sapiens, 72 h
# Method: as §2, §3
# [4] = system: c-KIT D816V Ba/F3 cells; test: Anti-proliferative activity on Ba/F3 cells; assay type: cell-based; conditions: Mus musculus, BaF3
# [5] = system: parental Ba/F3 cells; test: Anti-proliferative activity on Ba/F3 cells; assay type: cell-based; conditions: Mus musculus, BaF3
# Method: as §2, §3
# [6] = system: c-KIT auto-phosphorylation in HMC1.2 cells; test: Western blot of c-KIT signaling; assay type: cell-based, human; conditions: 10 μM
# Method: (§4) Cells were harvested and lysed using RIPA buffer containing 50 mM HEPES (pH 7.4), 1% Triton X-100, 2 mM EDTA, 150 mM NaCl, 2.5 mM NaF, 5 mM Na3VO4, and protease inhibitor cocktail tablet (Roche, # 11–878-580–001). Proteins were separated and transferred to an NC membrane. The membranes were blocked using 5% skim milk in TBS-T buffer. The p-c-KIT (Tyr703, # 3073), p-AKT (Ser473, # 9271), p-ERK (Thr202/Tyr204, # 8544), ERK (# 4695), p-PLCγ (Tyr783, # 14008), p-STAT3 (Tyr705, # 4074), and PARP (# 9542) antibodies were obtained from Cell Signaling Technologies. The β-actin (# sc-47778) and STAT3 (# sc-482) antibodies were obtained from Santa Cruz Biotechnology. AKT (A18120) antibody was purchased from ABclonal. Each primary antibody was incubated overnight at 4 °C. The secondary antibody (GenDEPOT) was incubated for 1 h at room temperature. Proteins were detected using ECL substrate.
# [7] = system: phosphorylated c-KIT (Tyr703) and downstream signaling in GIST-T1 cells; test: Western blot of c-KIT signaling; assay type: cell-based, human
# Method: as §4
# [8] = system: c-KIT auto-phosphorylation in c-KIT D816V Ba/F3 cells; test: Western blot of c-KIT signaling; assay type: cell-based; conditions: 10 μM
# Method: as §4
# [9] = system: GIST-T1 cells; test: Apoptosis analysis (annexinV/PI flow cytometry); assay type: cell-based, human; conditions: GIST-T1, 0.05 μM
# Method: (§5) After compound treatment in GIST-T1 and HMC1.2 cells for 24 h, cells were fixed with 70% cold ethanol. Then, cells were incubated with 50 μg propidium iodide/mL solution (PI, Sigma) containing 1 mg RNase A/mL for 30 min in the dark. Cell cycle arrest was analyzed (BD Accuri), and data were processed using BD Accuri^TM C6 software. For apoptosis analysis, compound treatment for 24–48 h, cells were harvested and stained with annexinV and PI solution. 1 × 10^5 cells were analyzed using flow cytometric analysis.
# [10] = system: HMC1.2 cells; test: Apoptosis analysis (annexinV/PI flow cytometry); assay type: cell-based, human; conditions: HMC1.2, 1 μM, 48 h
# Method: as §5
# [11] = system: c-KIT D816V Ba/F3 cells; test: Apoptosis analysis (annexinV/PI flow cytometry); assay type: cell-based; conditions: c-KIT D816V Ba/F3, 1 μM
# Method: as §5
# [12] = system: GIST-T1 cells; test: Cell cycle arrest analysis (PI flow cytometry); assay type: cell-based, human; conditions: GIST-T1, 0.01 μM
# Method: as §5
# [13] = system: HMC1.2 cells; test: Cell cycle arrest analysis (PI flow cytometry); assay type: cell-based, human; conditions: HMC1.2, 0.5 μM, 24 h
# Method: as §5
# [14] = system: c-KIT D816V Ba/F3 cells; test: Cell cycle arrest analysis (PI flow cytometry); assay type: cell-based; conditions: c-KIT D816V Ba/F3, 0.5 μM, 24 h
# [15] = system: GIST-T1 cells; test: Migration (wound healing) assay; assay type: cell-based, human; conditions: GIST-T1, 0.005 μM and 0.05 μM, 36 h
# Method: GIST-T1 cells were seeded in 6-well plates at 2 × 10^6 cells. Next day, cells were washed with PBS and wounded in the center of each well. Then, GIST-T1 cells were washed with PBS and added to fresh DMEM.
# [16] = system: GIST-T1 cells; test: Invasion assay (Transwell); assay type: cell-based, human; conditions: GIST-T1, 0.05 μM, 48 h
# Method: The cell invasion assay was performed using Transwell membrane filter inserts (Corning Costar Corp., Corning, NY, USA). GIST-T1 cells were then suspended in serum-free DMEM at 2 × 10^6 cells and seeded in the upper chambers. In the lower chambers, the DMEM medium containing 10% FBS was added. After 48 h, the cells migrating down the membrane were stained with crystal violet.
# [17] = molecular target: c-KIT (Homo sapiens, UniProt P10721); test: Radiometric biochemical kinase assay on c-KIT; parameters: purchased Reaction Biology Corp. (contract assay service); conditions: read-out: IC50 against c-KIT
# Method: as §1
# Enzymatic inhibitory activities of all synthesized thiazolo[5,4-b]pyridine derivatives against c-KIT were measured using radiometric biochemical kinase assays (Table 1). We first explored the R1 group of the thiazolo[5,4-b]pyridine scaffold.
# [18] = system: GIST-T1 cells; test: Soft agar assay (anchorage-independent growth); assay type: cell-based, human; conditions: GIST-T1, two different concentrations, 3 weeks
# Method: Anchorage-independent growth was assessed by determining colony formation on soft agar. GIST-T1 cells in DMEM media containing 0.7% agar were plated at 5,000 cells per well. Cells were treated with each compound for 3 weeks, and the media were changed every 3 days. Colonies were stained using iodonitrotetrazolium chloride (Sigma Aldrich). The average number colonies were counted using ImageJ software (version 1.53e, National Institutes of Health, Bethesda, MD, USA)
# [19] = system: GIST; parameters: method as in PMID 32601076; conditions: fourth-line treatment; cited from earlier work
IC50 [1],fold higher enzymatic inhibitory activity against c-KIT V560G/D816V compared with imatinib [1],GI50 [4],IC50 [17],SMILES,GI50 [2],GI50 [3],GI50 [5],c-KIT auto-phosphorylation [6],"levels of phosphorylated c-KIT (Tyr703) and downstream mediators p-AKT, p-ERK, p-PLCγ, p-STAT3 [7]",c-KIT auto-phosphorylation [8],production of apoptotic cells [9],production of apoptotic cells [10],production of apoptotic cells [11],G0/G1 arrest induced compared to control [12],G0/G1 arrest compared with imatinib [13],G0/G1 arrest compared with imatinib [14],cell migration decreased compared to control [15],invasion capability [16],anchorage-independent growth [18],overall response rate [19]
5.07 ± 0.71 µM,4.9- to 8.0 fold,530 ± 60 nM,100 nM,CC(=O)Nc1nc2cc(-c3cc(NC(=O)c4ccc(CN5CCN(C)CC5)c(C(F)(F)F)c4)ccc3C)cnc2s1 [7c],10 nM,1520 ± 430 nM,10.5 ± 3.44 µM,completely inhibited,remarkably inhibited,completely inhibited,remarkably induced,remarkably induced,remarkably induced,25–35%,more strongly,more strongly,50–70%,significantly suppressing,,
7.67 ± 2.64 µM,4.9- to 8.0 fold,1060 ± 150 nM,370 nM,Cc1ccc(NC(=O)c2ccc(CN3CCNCC3)c(C(F)(F)F)c2)cc1-c1cnc2sc(N)nc2c1 [6s],20 nM,1330 ± 430 nM,10.5 ± 3.59 µM,completely inhibited,remarkably inhibited,completely inhibited,remarkably induced,remarkably induced,remarkably induced,25–35%,more strongly,more strongly,50–70%,significantly suppressing,,
,,12200 ± 2060 nM,,"Cc1ccc(NC(=O)c2ccc(CN3CCN(C)CC3)cc2)cc1Nc1nccc(-c2cccnc2)n1 [imatinib, reference compound]",,27100 ± 3360 nM,17 ± 0.2 µM,,remarkably inhibited,,,did not induce apoptosis,,25–35%,,,,,dramatic inhibition,
,,,,CCn1c(=O)c(-c2cc(NC(=O)Nc3ccccc3)c(F)cc2Br)cc2cnc(NC)cc21 [Ripretinib],,,,,,,,,,,,,,,,9.4%
